Inhibition of growth data for three compounds are collected here from ChEMBL document CHEMBL5154747, “Discovery of new carbonic anhydrase IX inhibitors as anticancer agents by toning the hydrophobic and hydrophilic rims of the active site to encounter the dual-tail approach” (Eur J Med Chem, 2022).

Holding throughout (format): functional
Common to all, as to conditions: read-out: GI

The subject of one experiment is DU-145. The experiment can be described thus: Anticancer activity against human DU-145 cells assessed as cell growth inhibition at 10 uM incubated for 48 hrs by SRB assay relative to control.
The next experiment has as its system SW-620. The experiment in a line: Anticancer activity against human SW-620 cells assessed as cell growth inhibition at 10 uM incubated for 48 hrs by SRB assay relative to control. A general note: In SRB staining, fixed cells bind dye roughly in proportion to their protein.
The next experiment concerns A498. The experiment can be described thus: Anticancer activity against human A498 cells assessed as cell growth inhibition at 10 uM incubated for 48 hrs by SRB assay relative to control.
The test system of another experiment is OVCAR-4. The experiment can be described thus: Anticancer activity against human OVCAR-4 cells assessed as cell growth inhibition at 10 uM incubated for 48 hrs by SRB assay relative to control.
The subject of another experiment is K562. The experiment can be described thus: Anticancer activity against human K562 cells assessed as cell growth inhibition at 10 uM incubated for 48 hrs by SRB assay relative to control.
In the next experiment the test system is SF-295. The experiment can be described thus: Anticancer activity against human SF-295 cells assessed as cell growth inhibition at 10 uM incubated for 48 hrs by SRB assay relative to control.
In another experiment the test system is HT-29. The experiment in a line: Anticancer activity against human HT-29 cells assessed as cell growth inhibition at 10 uM incubated for 48 hrs by SRB assay relative to control.
In another experiment the test system is HCT-15. The experiment in a line: Anticancer activity against human HCT-15 cells assessed as cell growth inhibition at 10 uM incubated for 48 hrs by SRB assay relative to control.
The subject of another experiment is CCRF-CEM. The experiment can be described thus: Anticancer activity against human CCRF-CEM cells assessed as cell growth inhibition at 10 uM incubated for 48 hrs by SRB assay relative to control.
A further experiment deals with LOX IMVI. The experiment in a line: Anticancer activity against human LOX IMVI cells assessed as cell growth inhibition at 10 uM incubated for 48 hrs by SRB assay relative to control.
The test system of another experiment is HOP-92. The experiment in a line: Anticancer activity against human HOP-92 cells assessed as cell growth inhibition at 10 uM incubated for 48 hrs by SRB assay relative to control.
The test system of a further experiment is SK-OV-3. The experiment can be described thus: Anticancer activity against human SK-OV-3 cells assessed as cell growth inhibition at 10 uM incubated for 48 hrs by SRB assay relative to control.
In a further experiment the test system is SNB-75. The experiment in a line: Anticancer activity against human SNB-75 cells assessed as cell growth inhibition at 10 uM incubated for 48 hrs by SRB assay relative to control.
Another experiment concerns RXF 393. The experiment can be described thus: Anticancer activity against human RXF 393 cells assessed as cell growth inhibition at 10 uM incubated for 48 hrs by SRB assay relative to control.
Another experiment deals with CAKI-1. The experiment can be described thus: Anticancer activity against human CAKI-1 cells assessed as cell growth inhibition at 10 uM incubated for 48 hrs by SRB assay relative to control.
In another experiment the test system is SK-MEL-28. The experiment in a line: Anticancer activity against human SK-MEL-28 cells assessed as cell growth inhibition at 10 uM incubated for 48 hrs by SRB assay relative to control.
The subject of a further experiment is NCI-H23. The experiment in a line: Anticancer activity against human NCI-H23 cells assessed as cell growth inhibition at 10 uM incubated for 48 hrs by SRB assay relative to control.
The test system of the next experiment is SF-539. The experiment in a line: Anticancer activity against human SF-539 cells assessed as cell growth inhibition at 10 uM incubated for 48 hrs by SRB assay relative to control.
The next experiment deals with NCI-H522. The experiment can be described thus: Anticancer activity against human NCI-H522 cells assessed as cell growth inhibition at 10 uM incubated for 48 hrs by SRB assay relative to control.
The next experiment has as its system NCI-H322M. The experiment can be described thus: Anticancer activity against human NCI-H322M cells assessed as cell growth inhibition at 10 uM incubated for 48 hrs by SRB assay relative to control.

`CCCCc1nc(/C=N/Nc2nc(Nc3ccccc3)nc(Nc3ccc(S(N)(=O)=O)cc3)n2)c(Cl)[nH]1`: the inhibition of growth at 10 µM with DU-145 is 15%; in the experiment with SW-620 it was 24%; in the experiment on A498 it was 10%; in the experiment with OVCAR-4, 19%; in the experiment on K562 it was 62%; in the experiment with SF-295, less than 10%. Further, the inhibition of growth at 10 µM in the experiment on HT-29 was less than 10%; in the experiment with HCT-15, less than 10%; in the experiment on CCRF-CEM, 87%; in the experiment with LOX IMVI it was 58%; in the experiment on HOP-92, 39%; in the experiment on SK-OV-3, less than 10%. Besides, the inhibition of growth at 10 µM with SNB-75 was less than 10%; in the experiment with RXF 393, less than 10%; with CAKI-1 it was less than 10%; in the experiment with SK-MEL-28, 28%; in the experiment with NCI-H23, less than 10%; in the experiment with SF-539 it was 18%. For the same compound, the inhibition of growth at 10 µM in the experiment with NCI-H522 is 58%; with NCI-H322M, less than 10%.
`NNc1nc(Nc2ccccc2)nc(Nc2ccc(S(N)(=O)=O)cc2)n1`: the inhibition of growth at 10 µM with DU-145, in the experiment with SW-620, in the experiment with A498, in the experiment on OVCAR-4, with K562 and in the experiment with SF-295 was less than 10% in each case. Moreover, the inhibition of growth at 10 µM with HT-29, in the experiment on HCT-15, in the experiment with CCRF-CEM, in the experiment with LOX IMVI, in the experiment on HOP-92 and with SK-OV-3 was less than 10% in each case. The inhibition of growth at 10 µM in the experiment on SNB-75, in the experiment with RXF 393, in the experiment on CAKI-1, in the experiment on SK-MEL-28, in the experiment with NCI-H23 and in the experiment on SF-539 was less than 10% throughout. Moreover, the inhibition of growth at 10 µM in the experiment with NCI-H522 and in the experiment on NCI-H322M was less than 10% throughout.
Take `NS(=O)(=O)c1ccc(Nc2nc(N/N=C/c3c[nH]c4ccccc34)nc(Nc3ccccc3)n2)cc1`: the inhibition of growth at 10 µM in the experiment on DU-145 turned out to be 56%; with SW-620 it was 50%; with A498, 48%; in the experiment on OVCAR-4 it was 40%; in the experiment on K562, 77%; in the experiment on SF-295, 68%. Further, the inhibition of growth at 10 µM in the experiment with HT-29 was 68%; with HCT-15, 24%; in the experiment with CCRF-CEM, 87%; in the experiment with LOX IMVI, 110%; in the experiment with HOP-92 it was 38%; in the experiment on SK-OV-3, less than 10%. In addition, the inhibition of growth at 10 µM in the experiment on SNB-75 stood at 29%; with RXF 393, 125%; in the experiment with CAKI-1 it was 46%; in the experiment with SK-MEL-28, 54%; with NCI-H23, 52%; in the experiment with SF-539, 52%. The inhibition of growth at 10 µM in the experiment on NCI-H522 was determined as 68%; with NCI-H322M, 45%.
